From patent US5430150A, “Retroviral protease inhibitors” (American Cyanamid Company, priority 1992, dated 1995) come the findings set out here.

Where two headings read alike, the source gives them in different places.

The term IC50 denotes the concentration at which inhibition is half-maximal.

Experiment [1] has as its system HIV-1 strain IIIB in T lymphoid MT-2 cell lines. The experiment in a line: inhibition of growth of HIV-1 strain IIIB in T lymphoid MT-2 cell lines (metabolic MTT dye). The experiment is classed as cell-based. The settings on record: Human immunodeficiency virus 1, IIIB, MT2, 120 h, 5 days; for inhibition at 0.01 µg/mL: 0.010 μg/ml, read-out: % Inhibition at concentration 0.010 μg/ml; for inhibition at 0.039 µg/mL: 0.039 μg/ml, read-out: % Inhibition at concentration 0.039 μg/ml; for inhibition at 0.156 µg/mL: 0.156 μg/ml, read-out: % Inhibition at concentration 0.156 μg/ml; for inhibition at 0.625 µg/mL: 0.625 μg/ml, read-out: % Inhibition at concentration 0.625 μg/ml; for inhibition at 2.5 µg/mL: 2.5 μg/ml, read-out: % Inhibition at concentration 2.5 μg/ml. The protocol:
In Table 2, data is shown for the ability of these compounds to inhibit growth of HIV-1 strain IIIB in T lymphoid MT-2 cell lines. The cell line is challenged by free virons selected to result in 90-95% cell death (CPE) by day 5. The protease inhibitor compound is then added in the stated concentration. After 5 days, the surviving cells are measured using metabolic MTT dye.
For orientation: Tetrazolium assays rely on reduction of a dye to a coloured formazan, in cell work by metabolically active cells.

In the next experiment the target is HIV-1 protease (Human immunodeficiency virus type 1 group M subtype B, UniProt P04585). As to the kind of experiment: biochemical. The experiment is classed as biochemical. The protocol: IC50 values for enzyme inhibition are determined using HIV-1 and Amersham's HIV proteinase [^125 I]-scintillation proximity assay (SPA).
Amersham's HIV proteinase [^125 I]-SPA system is a commercial assay incorporating the scintillation proximity assay (SPA) principle available from Amersham International PLC, Bucks, England.
The SPA microspheres provided by Amersham have the substrate linked directly to the surface through a streptavidin-biotin link. The substrate is a 12 residue peptide designed specifically for this application utilizing current knowledge of known cleavage sites for the enzyme and analogue substrate studies. The sequence of the substrate is: [drawing 22]
The peptide is monoiodinated on the tyrosine residue and biotinylated through the epsilon-NH2 group on the lysine. It is linked to the SPA bead via a streptavidin-link. The beads are suspended in a buffer consisting of 5 mM DTT, 1 mM EDTA, 10% w/v glycerol, 0.05% W/v sodium azide, 0.01% v/v Triton X-100 in 25 mM sodium citrate buffer pH 5.5.
The enzyme cleaves at the Phe-Phe bond releasing the ^125 I fragment from the bead. This event causes the removal of detectable signal from the microsphere. […] The rate of reduction in signal is proportional to the activity of the enzyme. The obtained data is used to calculate the IC50 values found in Table 1.

[2] abbreviates: Activity of Compounds as Enzyme Inhibitor.

As to `CC(C)(C)NC(=O)[C@@H]1C[C@@H]2CCCC[C@@H]2CN1CC(O)C[C@@H](Cc1ccccc1)C(=O)N[C@H]1CCCC[C@@H]1NC(=O)c1cc2ccccc2cn1` (stereo partly drawn) [Example 42, [3S-[2[alphaS*[1R*,1(2R*)]],3alpha,4abeta,8abeta]]-3-[[(1,1-Dimethylethyl)amino]carbonyl)octahydro-gamma-hydroxy-N-[2-[(3-isoquinolinylcarbonyl)amino]cyclohexyl]-alpha-(phenylmethyl)-2-(1H)-isoquinolinepentanamide], in experiment [1], the inhibition at 0.01 µg/mL was 4.33%, the inhibition at 0.039 µg/mL stood at 0%, the inhibition at 0.156 µg/mL worked out at 4.21% and the inhibition at 0.625 µg/mL is 12.9%. Also, the inhibition at 2.5 µg/mL in experiment [1] was 86.8%. The compound further gave an IC50 at HIV-1 protease (setting [2]) of 0.079 µM.

For `CC[C@H](C)[C@H](NC(=O)[C@H](Cc1ccccc1)CC(O)CN1C[C@H]2CCCC[C@H]2C[C@H]1C(=O)NC(C)(C)C)C(=O)N[C@@H](C)c1nc2ccccc2[nH]1` (stereo partly drawn) [Example 51, [3S-[2alphaS*[1R*,1(R*),2R*]],3alpha,4abeta,8abeta]]-N-[1-[[[1H-benzimidazol-2-yl)ethyl]amino]carbonyl]-2-methylbutyl]-3-[[(1,1-dimethylethyl)amino]carbonyl]octahydro-gamma-hydroxy-alpha-phenylmethyl)-2(1H)-isoquinolinepentanamide], in experiment [1], the inhibition at 0.01 µg/mL turned out to be 1.67%, the inhibition at 0.039 µg/mL stood at 2.24%, the inhibition at 0.156 µg/mL turned out to be 10.4% and the inhibition at 0.625 µg/mL amounted to 55.1%. The inhibition at 2.5 µg/mL in experiment [1] amounted to 72.9%. This compound also had an IC50 on HIV-1 protease of 0.128 µM.

For `CC(C)(C)NC(=O)[C@@H]1C[C@@H]2CCCC[C@@H]2CN1CC(O)(CO)C[C@@H](Cc1ccccc1)C(=O)N[C@H]1CCCC[C@@H]1NC(=O)c1cc2ccccc2cn1` (stereo partly shown) [Example 40], in experiment [1], the inhibition at 0.01 µg/mL was 0%, the inhibition at 0.039 µg/mL came to 0%, the inhibition at 0.156 µg/mL amounted to 1.88% and the inhibition at 0.625 µg/mL was 0.91%. Besides, the inhibition at 2.5 µg/mL in experiment [1] is 13.8%. The same compound gave an IC50 at HIV-1 protease (setting [2]) of 0.0551 µM.

`CC(C)(C)NC(=O)[C@@H]1C[C@@H]2CCCC[C@@H]2CN1CC(O)(CO)C[C@@H](Cc1ccccc1)C(=O)N[C@H]1CCCC[C@@H]1NC(=O)c1ccc2ccccc2n1` (stereo partly shown) [Example 35]: in experiment [1], the inhibition at 0.01 µg/mL amounted to 0%, the inhibition at 0.039 µg/mL stood at 0%, the inhibition at 0.156 µg/mL came to 1.97% and the inhibition at 0.625 µg/mL stood at 0%. The inhibition at 2.5 µg/mL in experiment [1] was determined as 0%. This compound also gave an IC50 against HIV-1 protease (setting [2]) of 0.0689 µM.

Take `CC[C@H](C)[C@H](NC(=O)[C@H](Cc1ccccc1)CC(O)CN1C[C@H]2CCCC[C@H]2C[C@H]1C(=O)NC(C)(C)C)C(=O)NCc1nc2ccccc2[nH]1` (stereo partly drawn) [Example 23, [3S-[2[alphaS*(1R*,2R*),gammaR* (and S*)],3alpha,4abeta,8abeta]]-N-[1-[[(1H-Benzimidazol-2-ylmethyl)amino]carbonyl]-2-methylbutyl]-3-[[(1,1-dimethylethyl)amino]carbonyl]decahydro-gamma-hydroxy-alpha-(phenylmethyl)-2-isoquinolinepentanamide]: in experiment [1], the inhibition at 0.01 µg/mL came out at 13%, the inhibition at 0.039 µg/mL stood at 78.7%, the inhibition at 0.156 µg/mL amounted to 93.6% and the inhibition at 0.625 µg/mL came to 95.8%. The inhibition at 2.5 µg/mL in experiment [1] stood at 98.5%. This compound showed an IC50 at HIV-1 protease (setting [2]) of 0.0728 µM.

As to `CC[C@H](C)[C@H](NC(=O)[C@H](Cc1ccccc1)CC(O)(CO)CN1C[C@H]2CCCC[C@H]2C[C@H]1C(=O)NC(C)(C)C)C(=O)NCc1ccccn1` (stereo partly drawn) [Example 26, [3S-[2[gammaR*(and S*),gamma[alphaS*[1R*,1(R*)]]],3alpha,4abeta,8abeta]]-3-[[(1,1-Dimethylethyl)amino]carbonyl]octahydro-gamma-hydroxy-gamma-(hydroxymethyl)-N-[[2-methyl-1-[[(2-pyridinylmethyl)amino]carbonyl]butyl]-alpha-(phenylmethyl)-2(1H)-isoquinolinepentanamide], half-maximal inhibition against HIV-1 protease (setting [2]) (IC50) required 0.738 µM.

As for `CC[C@H](C)[C@H](NC(=O)[C@H](Cc1ccccc1)CC(O)CN1C[C@H]2CCCC[C@H]2C[C@H]1C(=O)NC(C)(C)C)C(=O)NCc1nc2ccccc2[nH]1` (single isomer, unassigned) [Example 24A, [3S-[2[alphaS*(1R*,2R*),gammaR*(or S*),3alpha,4abeta,8abeta]]-N-[1-[[(1H-Benzimidazol-2-ylmethyl)amino]carbonyl]-2-methylbutyl]-3-[(1,1-dimethylethyl)amino]carbonyl]decahydro-gamma-hydroxy-alpha-(pentylmethyl)-2-isoquinolinepentanamide], in experiment [1], the inhibition at 0.01 µg/mL came to 10.7%, the inhibition at 0.039 µg/mL was 63.3%, the inhibition at 0.156 µg/mL turned out to be 100% and the inhibition at 0.625 µg/mL is 103%. In addition, the inhibition at 2.5 µg/mL in experiment [1] stood at 96%. Further, on HIV-1 protease (setting [2]), the IC50 was 0.0728 µM.

Turning to `CC[C@H](C)[C@H](NC(=O)[C@H](Cc1ccccc1)CC(O)CN1C[C@H]2CCCC[C@H]2C[C@H]1C(=O)NC(C)(C)C)C(=O)NCc1ccccn1` (stereo partly drawn) [Example 28, [3S-[2[gammaR*(and S*),gamma[alphaS*[1R,1(R*)]]]],3alpha,4abeta,8abeta]]-3-[[(1,1-Dimethylethyl)amino]carbonyl]octahydro-gamma-hydroxy-N-[2-methyl-1-[[(2-pyridinylmethyl)amino]carbonyl]butyl]-alpha-(phenylmethyl)-2(1H)-isoqinolinepentanamide], half-maximal inhibition at HIV-1 protease (setting [2]) (IC50) required 0.154 µM.

`CC[C@H](C)[C@H](NC(=O)[C@H](Cc1ccccc1)CC(O)(CO)CN1C[C@H]2CCCC[C@H]2C[C@H]1C(=O)NC(C)(C)C)C(=O)NCc1nc2ccccc2[nH]1` (stereo partly drawn) [Example 21, [3S-[2[alphaS*(1R*,2R*),gammaR*(and S*),3alpha,4abeta,8abeta]]-N[1-[[(1H-Benzimidazol-2-ylmethyl)amino]carbonyl]-2-methylbutyl]-3-[[(1,1-dimethylethyl)amino]carbonyl]decahydro-gamma-hydroxy-gamma-(hydroxymethyl)alpha-(phenylmethyl)-2-isoquinolinepentanamide]: in experiment [1], the inhibition at 0.01 µg/mL came out at 0%, the inhibition at 0.039 µg/mL amounted to 8.1%, the inhibition at 0.156 µg/mL was 33% and the inhibition at 0.625 µg/mL was found to be 103%. For the same compound, the inhibition at 2.5 µg/mL in experiment [1] was 102%. In addition, the IC50 against HIV-1 protease (setting [2]) is 0.0697 µM.

For the compound `CC(C)(C)NC(=O)[C@@H]1C[C@@H]2CCCC[C@@H]2CN1CC(O)C[C@@H](Cc1ccccc1)C(=O)N[C@H]1CCCC[C@@H]1NC(=O)c1ccc2ccccc2n1` (stereo partly drawn) [Example 37, [3S-[2[2S*(2R*,1R*)],3alpha,4abeta,8abeta]]-N-2-[[5-[3-[[(1,1-dimethylethyl)amino]carbonyl]octahydro-2(1H )-isoquinolinyl]-4-hydroxy-1-oxo-2-(phenylmethyl)pentyl]amino]cyclohexyl]-2-quinolinecarboxamide], in experiment [1], the inhibition at 0.01 µg/mL stood at 0.95%, the inhibition at 0.039 µg/mL amounted to 0%, the inhibition at 0.156 µg/mL was 0% and the inhibition at 0.625 µg/mL worked out at 4.37%. Besides, in experiment [1], the inhibition at 2.5 µg/mL was found to be 49.1%. Inhibition at HIV-1 protease was half-maximal at 0.0718 µM (IC50).

Take `CC[C@H](C)[C@H](NC(=O)[C@H](Cc1ccccc1)CC(O)(CO)CN1C[C@H]2CCCC[C@H]2C[C@H]1C(=O)NC(C)(C)C)C(=O)OC` (relative stereo) [Example 30, 3S-[2(2S*),3alpha,4abeta,8abeta]]-N-[5-[3-[[(1,1-Dimethylethyl)amino]carbonyl]octahydro-2(1H)-isoquinolinyl]4-hydroxy-4-(hydroxymethyl)-1-oxo-2-(phenylmethyl)pentyl]-L-isoleucine methyl ester]: 0.415 µM corresponded to half-maximal inhibition against HIV-1 protease (setting [2]) (IC50).

In the case of `CC[C@H](C)[C@H](NC(=O)[C@H](Cc1ccccc1)CC(O)CN1C[C@H]2CCCC[C@H]2C[C@H]1C(=O)NC(C)(C)C)C(=O)OC` (stereo partly drawn) [Example 32, [3S-[2[2S*,4R*(and S*)],3alpha,4abeta,8abeta]-N-[5-[3-[[(1,1-Dimethylethyl)amino]carbonyl]octahydro-2(1H)-isoquinolinyl]-4-hydroxy-1-oxo-2-(phenylmethyl)pentyl]-L-isoleucinemethyl ester], the IC50 against HIV-1 protease (setting [2]) is 0.874 µM.
